How the values were obtained:
[1] = biological target: T1, Ephrin type-A receptor 2 [596-900] (Homo sapiens, UniProt P29317); experiment: Kinobeads Competition Assay
T1 construct: 596-900
T1 sequence (P29317 whole entry): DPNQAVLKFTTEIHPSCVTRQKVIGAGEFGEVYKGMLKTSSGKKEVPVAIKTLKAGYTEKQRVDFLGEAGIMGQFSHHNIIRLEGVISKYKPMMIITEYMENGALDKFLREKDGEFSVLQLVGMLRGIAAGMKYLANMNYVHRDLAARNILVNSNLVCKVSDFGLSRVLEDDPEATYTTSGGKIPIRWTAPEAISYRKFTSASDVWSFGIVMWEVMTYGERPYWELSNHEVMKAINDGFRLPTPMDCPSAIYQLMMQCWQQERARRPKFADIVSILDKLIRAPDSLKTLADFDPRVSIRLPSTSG

[2] = biological target: T1, Ephrin type-A receptor 2 [596-900]; experiment: HotSpot Kinase Activity Assay
Description: Refer to Reaction Biology Corps.

## CN1CCN(CCOc2cc(OC3CCOCC3)c3c(Nc4c(Cl)ccc5c4OCO5)ncnc3c2)CC1
[1]
  Kd: 0.338 µM

## CNC(=O)c1cc(Oc2ccc(NC(=O)Nc3ccc(Cl)c(C(F)(F)F)c3)c(F)c2)ccn1
[1]
  Kd: 0.869 µM

## CC(C)c1cc(CNc2nc(Nc3cc(C4CC4)[nH]n3)cc(N3CCN(C)CC3)n2)on1 [4-N-(5-cyclopropyl-1H-pyrazol-3-yl)-6-(4-methylpiperazin-1-yl)-2-N-[(3-propan-2-yl-1,2-oxazol-5-yl)methyl]pyrimidine-2,4-diamine]
[1]
  Kd: 0.019 µM
[2]
  IC50: 0.004 µM

## Cc1ccc(NC(=O)c2ccc(CN3CC[C@H](N(C)C)C3)c(C(F)(F)F)c2)cc1Nc1ncc(-c2cncnc2)cn1 [4-[[(3S)-3-(dimethylamino)pyrrolidin-1-yl]methyl]-N-[4-methyl-3-[(5-pyrimidin-5-ylpyrimidin-2-yl)amino]phenyl]-3-(trifluoromethyl)benzamide]
[1]
  Kd: 0.192 µM
[2]
  IC50: 0.017 µM

## CCS(=O)(=O)c1cccc(-c2cc(C(=O)NC3CCN(C)CC3)c(C)c3[nH]c4ncc(C)cc4c23)c1 [5-(3-ethylsulfonylphenyl)-3,8-dimethyl-N-(1-methylpiperidin-4-yl)-9H-pyrido[2,3-b]indole-7-carboxamide]
[1]
  Kd: 0.198 µM
[2]
  IC50: 0.0048 µM

## COc1cc2c(Nc3ccc(Cl)c(Cl)c3F)ncnc2cc1OCC1C[C@@H]2CN(C)C[C@@H]2C1 (stereo partly drawn) [7-[[(3aS,6aR)-2-methyl-3,3a,4,5,6,6a-hexahydro-1H-cyclopenta[c]pyrrol-5-yl]methoxy]-N-(3,4-dichloro-2-fluorophenyl)-6-methoxyquinazolin-4-amine]
[1]
  Kd: 0.458 µM

## COc1cc(N2CCC(N3CCN(C)CC3)CC2)ccc1Nc1ncnc(Nc2ccccc2S(=O)(=O)C(C)C)n1 [ASP-3026]
[1]
  Kd: 0.64 µM

## COc1cc(Nc2ncc3c(n2)-c2ccc(Cl)cc2C(c2c(F)cccc2OC)=NC3)ccc1C(=O)O [Alisertib]
[1]
  Kd: 0.187 µM
[2]
  IC50: 0.048 µM

## COc1cccc(Nc2ncnn3ccc(CN4CC[C@@H](N)[C@H](O)C4)c23)c1 [BMS-690514]
[1]
  Kd: 0.961 µM

## C[C@@H](NC(=O)c1ncnc(N)c1Cl)c1ncc(C(=O)Nc2cc(C(F)(F)F)c(Cl)cn2)s1 [MLN-2480]
[1]
  Kd: 0.484 µM

## CNC(=O)c1nn(C)c2c1C(C)(C)Cc1cnc(Nc3ccc(N4CCN(C)CC4)cc3)nc1-2 [Milciclib]
[1]
  Kd: 0.672 µM

## COc1cc2nccc(Oc3ccc(NC(=O)Nc4cc(C)on4)c(Cl)c3)c2cc1OC [Tivozanib]
[1]
  Kd: 0.259 µM

Reference: BindingDB's records for doi:10.1021/acschembio.6b00709 (Technical University of Munich, 2016)
